Measurements published in patent publication US8637526B2, “Pyrazolopyrimidine JAK inhibitor compounds and methods” (Genentech, Inc., priority 2008, dated 2014).
Where two headings read alike, the source gives them in different places.

Columns and labels:
[1] = test system: Set-2 cells, which express the JAK2V617F mutant protein; test: STAT5 phosphorylation in Set-2 cells (JAK2-dependent signaling, MSD); type: cell-based; conditions: Homo sapiens, read-out: pSTAT5 SET2 EC50
Method: The activities of compounds were determined in cell-based assays that are designed to measure JAK2-dependent signaling or proliferation. Compounds were serially diluted in DMSO and incubated with Set-2 cells (German Collection of Microorganisms and Cell Cultures (DSMZ); Braunschweig, Germany), which express the JAK2V617F mutant protein, in 96-well microtiter plates for 1 hr at 37° C. in RPMI medium at a final cell density of 100,000 cells per well and a final DMSO concentration of 0.57%. Compound-mediated effects on STATS phosphorylation were then measured in the lysates of incubated cells using the Meso Scale Discovery (MSD) technology (Gaithersburg, Md.) according to the manufacturer's protocol and EC50 values were determined. Alternatively, serially diluted compounds were added to 384-well microtiter plates in RPMI medium with 10% fetal bovine serum (Invitrogen Corp.; Carlsbad, Calif.) at a final cell density of 2500 cells per well and a final DMSO concentration of 0.3% and incubated at 37° C. for 72 hours. Cell viability was then determined using the CellTiter-Glo® Luminescent Cell Viability Assay according to the manufacturer's protocol (Promega; Madison, Wis.) and EC50 values were determined.

[2] = molecular target: human JAK2 kinase domain (Homo sapiens (Human), UniProt O60674); test: JAK2 Inhibition Assay Protocol (Caliper LabChip peptide phosphorylation); type: biochemical; conditions: enzymatic activity, 25 uM ATP; read-out: JAK2i Ki
human JAK2 kinase domain, sequence (O60674 812-1132): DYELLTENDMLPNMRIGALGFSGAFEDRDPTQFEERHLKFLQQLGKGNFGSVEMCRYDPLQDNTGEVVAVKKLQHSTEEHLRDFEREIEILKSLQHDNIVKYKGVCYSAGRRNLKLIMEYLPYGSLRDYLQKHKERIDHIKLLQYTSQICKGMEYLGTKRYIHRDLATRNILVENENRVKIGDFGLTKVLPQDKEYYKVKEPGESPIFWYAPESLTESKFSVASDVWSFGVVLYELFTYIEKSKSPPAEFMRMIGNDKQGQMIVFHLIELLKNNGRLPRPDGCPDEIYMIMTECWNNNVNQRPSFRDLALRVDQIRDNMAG
Text: Saltzman et al., Biochem. Biophys. Res. Commun. 246:627-633 (2004). The catalytically active kinase domain of human JAK2 was purified from extracts of SF9 insect cells infected with a recombinant baculovirus expression vector encoding the human JAK2 kinase domain (amino acid residues D812-G1132 according to the numbering of GenBank sequence accession number NP_004963.1). The activity of the JAK2 kinase domain can be measured by a number of direct and indirect methods, including quantification of phosphorylation of peptide substrates derived from the human JAK3 protein Saltzman et al., Biochem. Biophys. Res. Commun. 246:627-633 (2004). The activity of the JAK2 kinase domain was measured in vitro by monitoring phosphorylation of JAK3 derived peptides using the Caliper LabChip technology (see Examples).
The activity of the isolated kinase domain of JAK2 can be measured by monitoring phosphorylation of peptide substrates derived from the human JAK3 kinase in vitro Saltzman et al., Biochem. Biophys. Res. Commun. 246:627-633 (2004). The human JAK2 kinase domain was expressed with an N-terminal His6 tag followed by a thrombin cleavage site using the baculovirus expression vector system. The kinase domain expressed is defined as amino acid residues D812-G1132 according to the numbering of GenBank sequence accession number NP_004963.1. Recombinant DNA transfer vectors were co-transfected with BakPAK6 linearized DNA (Clontech Laboratories, Inc., Mountain View, Calif.) and the resulting viral stocks were amplified using standard protocols. Protein was produced in SF9 cells grown to a cell density of 2E6/mL in ESF921 media (Expression Systems LLC, Woodland, Calif.) and infected at an M.O.I. of 1 in Wave bioreactors. The cells were harvested 72 hours post infection, and active JAK2 enzyme was purified from the lysates of infected cells by Ni-NTA (Qiagen, Valencia, Calif.) column chromatography followed by Sephacryl S-200 (GE Healthcare, Piscataway, N.J.) column chromatography.
(§1) The catalytically active kinase domain of human JAK1, JAK2, JAK3 or TYK2 was purified from extracts of SF9 insect cells infected with a recombinant baculovirus expression vector encoding the human JAK1, JAK2, JAK3 or TYK2 kinase domains (JAK1 amino acid residues N852-D1154 according to the numbering of GenBank sequence accession number P23458, JAK2 amino acid residues D812-G1132 according to the numbering of GenBank sequence accession number NP_004963.1; JAK3 amino acid residues S783-S1124 according to the numbering of GenBank sequence accession number P52333, and TYK2 amino acid residues N873-C1187 according to the numbering of GenBank sequence accession number P29597). The activity of the JAK1, JAK2, JAK3 or TYK2 kinase domains can be measured by a number of direct and indirect methods, including quantification of phosphorylation of peptide substrates derived from the human JAK3 protein (Saltzman et al., Biochem. Biophys. Res. Commun. 246:627-633 (2004)). The activity of the JAK1, JAK2, JAK3 or TYK2 kinase domains was measured in vitro by monitoring phosphorylation of JAK3 derived peptides using the Caliper LabChip technology.
(§2) The activity of the isolated JAK2 kinase domain was measured by monitoring phosphorylation of a peptide derived from JAK3 ([…] fluorescently labeled on the N-terminus with 5-carboxyfluorescein using the Caliper LabChip technology (Caliper Life Sciences, Hopkinton, Mass.). […] Reactions were incubated at 22° C. in 384-well polypropylene microtiter plates for 30 minutes and then stopped by addition of 250 μL of an EDTA containing solution (100 mM Hepes pH 7.2, 0.015% Brij-35, 150 mM EDTA), resulting in a final EDTA concentration of 50 mM. After termination of the kinase reaction, the proportion of phosphorylated product was determined as a fraction of total peptide substrate using the Caliper LabChip 3000 according to the manufacturer's specifications. Ki values were then determined using the Morrison tight binding model.

[3] = molecular target: human JAK1 kinase domain (Homo sapiens (Human), UniProt P23458); test: JAK1 Inhibition Assay Protocol (Caliper LabChip peptide phosphorylation); type: biochemical; conditions: enzymatic activity, 25 uM ATP
human JAK1 kinase domain, sequence (P23458 852-1154): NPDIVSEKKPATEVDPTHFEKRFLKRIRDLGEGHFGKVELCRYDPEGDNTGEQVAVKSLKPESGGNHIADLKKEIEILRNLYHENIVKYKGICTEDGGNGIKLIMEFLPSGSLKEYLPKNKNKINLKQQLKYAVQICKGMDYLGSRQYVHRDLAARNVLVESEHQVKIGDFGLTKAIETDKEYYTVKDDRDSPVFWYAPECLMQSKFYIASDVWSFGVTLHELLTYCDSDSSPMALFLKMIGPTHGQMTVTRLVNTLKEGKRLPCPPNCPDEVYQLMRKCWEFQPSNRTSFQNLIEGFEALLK
Text: as §1
as §2, with “JAK1 or TYK2” for “JAK2”, “25 uL” for “250 μL”, “model (Morrison, J. F., Biochim. Biophys. Acta. 185:269-296 (1969); William, J. W. and Morrison, J. F., Meth. Enzymol., 63:437-467 (1979)).” for “model.”

| Ki [2] | Ki [3] | EC50 ([1]; Set-2 cells, 1 hr incubation) | Structure (SMILES) | EC50 ([1]; SET-2, 1 h) |
| --- | --- | --- | --- | --- |
| 0.0016 µM | 0.0466 µM | 0.17 µM | O=C(NC1CCOCC1)c1cnn2ccc(NC3Cc4ccccc4C3)nc12 [Example 297, 5-(Indan-2-ylamino)-pyrazolo[1,5-a]pyrimidine-3-carboxylic acid (tetrahydro-pyran-4-yl)-amide] | – |
| 0.0005 µM | 0.0074 µM | 0.017 µM | Cc1cc(NC(=O)c2cnn3ccc(N)nc23)n(-c2cc(Cl)ccc2C)n1 [Example 226] | – |
| 0.0009 µM | 0.0176 µM | 0.0434 µM | Nc1ccn2ncc(C(=O)Nc3ccnn3-c3cc(Cl)ccc3Cl)c2n1 [Example 277, 5-Amino-pyrazolo[1,5-a]-pyrimidine-3-carboxylic acid [2-(2,5-dichloro-phenyl)-2H-pyrazol-3-yl]-amide] | – |
| 0.0042 µM | 0.0299 µM | 0.301 µM | Cc1cc(NC(=O)c2cnn3ccc(N)nc23)n(-c2ccccc2C)n1 [Example 343, 5-Amino-pyrazolo[1,5-a]-pyrimidine-3-carboxylic acid (5-methyl-2-o-tolyl-2H-pyrazol-3-yl)-amide] | – |
| 0.0001 µM | 0.0028 µM | 0.018 µM | Nc1ccn2ncc(C(=O)Nc3c[nH]nc3-c3cc(Cl)ccc3Cl)c2n1 [Example 248, 5-Amino-pyrazolo[1,5-a]-pyrimidine-3-carboxylic acid [3-(2,5-dichloro-phenyl)-1H-pyrazol-4-yl]-amide] | – |
| 0.0032 µM | 0.036 µM | 0.365 µM | Cc1cc(NC(=O)c2cnn3ccc(Nc4cccc(C(F)(F)F)c4)nc23)on1 [Example 240, 5-(3-Trifluoromethyl-phenylamino)-pyrazolo-[1,5-a]pyrimidine-3-carboxylic acid (3-methyl-isoxazol-5-yl)-amide] | – |

| Structure (SMILES) | Ki [2] | Ki [3] | EC50 ([1]; Set-2 cells, 1 hr incubation) | EC50 ([1]; SET-2, 1 h) |
| --- | --- | --- | --- | --- |
| Cc1nc(-c2ccccc2C)c(NC(=O)c2cnn3ccc(N)nc23)s1 [Example 231, 5-amino-pyrazolo[1,5-a]pyrimidine-3-carboxylic acid (2-methyl-4-o-tolyl-thiazol-5-yl)-amide] | 0.0018 µM | 0.0152 µM | – | 0.0802 µM |
| O=C(N[C@H]1CC[C@H](O)CC1)c1cnn2ccc(NC3CCc4ccccc43)nc12 (stereo partly drawn) [Example 299, 5-(Indan-1-ylamino)-pyrazolo[1,5-a]pyrimidine-3-carboxylic acid (4-hydroxy-cyclohexyl)-amide] | 0.0008 µM | 0.0287 µM | 0.256 µM | – |
